“Also recorded” adds a separate entry of the source. Where a name gives a salt, the structure may show the parent alone. Read-outs that look alike come from different tables or passages of the source.

Data set [1] deals with IL-6, IL-10. The data set is classed as cell-based, human.
Data set [2] concerns SARS-CoV-2. Nature of the data set: microbe, parasite or virus in culture. In kind it is cell-based.
Data set [3] concerns Nrf2, Keap1, HO-1. In words: Nrf2, Keap1 and HO-1 protein levels in Calu3 cells, flow cytometry. Particulars: for HO-1 protein levels: Calu3, 10 μM DMF, 100-1000 nM Mito-MES, Mito-MES with DMF, 0.25 μM Brusatol, 10 μM 4F; for protein levels of Keap (Keap1) / protein levels of Nrf2: infected and uninfected Calu3. In kind it is cell-based, human.
For data set [4], the system named is IL-6, IL-1β, IL-8, IL-10, TNF-α. In kind it is cell-based, human. Particulars: 0.25 μM brusatol; for release of IL-6 from infected cells: 10 μM DMF, 10-100 μM DMF+100-1000 nM Mito-MES.
In data set [5] the test system is Calu3 cells. In words: XTT cell cytotoxicity assay in uninfected Calu3 cells. In kind it is cell-based, human. As for the experimental part: (§1) To measure cell viability to determine if there was any treatment-induced cytotoxicity, cells were plated and treated with drugs as described above. Cells were exposed to the same dilution series created for the in vitro efficacy studies. As above, vehicle-treated cells served as the 0% cytotoxicity control. After 24 h, cell viability was measured on a Synergy 2 Biotek microplate reader (Biotek Inc) via the XTT Cell Proliferation Assay Kit (ATCC® 30-1011K™) according to the manufacturer's protocol. Similar data were obtained in three independent experiments.

Data set [6] concerns uninfected cells. In words: XTT cell cytotoxicity assay in similarly treated uninfected cultures (Mito-TEMPO, 4F). In kind it is cell-based. The conditions noted are these: Mito-TEMPO 10-1000 nM. As for the experimental part:
as §1

The subject of data set [7] is icSARS-CoV-2-mNG. The data set is classed as cell-based, SARS-CoV-2.
Data set [8] concerns icSARS-CoV-2-mNG. The data set is classed as cell-based, SARS-CoV-2. The source holds these as a separate data set.
The test system of data set [9] is hACE2 HEK293T cells and ALI HAE cultures. The conditions noted are these: 1000 nM.

Consider `COC1=C(OC)C(=O)C(C/C=C(\C)CC/C=C(\C)CC/C=C(\C)CC/C=C(\C)CC/C=C(\C)CC/C=C(\C)CC/C=C(\C)CC/C=C(\C)CC/C=C(\C)CCC=C(C)C)=C(C)C1=O` [CoQ10, Coenzyme Q10], for which the “secretion / release of IL-6” value in [1] was “reduced subsequent release of IL-6”.
On to `COC(=O)/C=C/C(=O)OC` [DMF, dimethyl fumarate], for which the “release of progeny SARS-CoV-2 virus particles, TCID50 assay” value in [2] (Calu3, 10 μM DMF pretreatment 24 h, alone or with 10-1000 nM Mito-MES) is “had anti-SARS-CoV-2 activity; also recorded: reduction in subsequent release of progeny SARS-CoV-2 virus particles”. For the same molecule, the “Viral replication by flow cytometry at 48 hpi in Calu3 cells” value (“Viral replication by flow cytometry” below) in [2] (DMF 10 μM, Mito-MES 100 nM, Mito-MES 100 nM+DMF 10 μM, […]) stood at 5.4%. Further, the “Viral replication by flow cytometry” value in [2] (DMF 100 μM, Mito-MES 100 nM+DMF 100 μM, control 9.3%) worked out at 2.1%. Besides, in data set [3], the HO-1 protein levels entry is listed as “increased protein levels of heme oxygenase-1 (HO-1)”; the “protein levels of Keap (Keap1)” value is “reduced protein levels of the endogenous Nrf2 inhibitor, Keap1; also recorded: reduced protein levels of Keap”; the “protein levels of Nrf2” value is reported as “did not impact protein levels of Nrf2”. Also, the “release of IL-6 from infected cells” value in data set [4] is on record as “reduction in subsequent release of IL-6”. Also, in data set [5] (100 μM DMF, 24 h), the “cytotoxicity, XTT cell cytotoxicity assay” value is on record as “cytotoxic”.
On to `CC1(C)CC(NC(=O)C[P+](c2ccccc2)(c2ccccc2)c2ccccc2)CC(C)(C)N1[O]` [Mito-TEMPO], for which the “cytotoxicity, XTT cell cytotoxicity assay” value in data set [6] is reported as “no observed cytotoxicity”. In addition, the “antiviral activity against fluorescent SARS-CoV-2” value in [7] is “potent and similar antiviral activity”; in data set [8] it was “potent and similar antiviral activity”.
Consider `CCCCCCCCCC[P+](c1ccccc1)(c1ccccc1)c1ccccc1.[Br-]` [dTPP], for which, in [2] (Calu3, dTPP 1000 nM), the “antiviral activity, viral replication by TCID50-assay” value is recorded as “Antiviral activity was observed”. For the same molecule, the cytotoxicity result in [9] is on record as “not cytotoxic”. Further, in data set [5] (uninfected Calu3, dTPP 1000 nM), the “cytotoxicity, XTT assay” value is given as “not cytotoxic”. Besides, the “secretion / release of IL-6” value in data set [1] was “reduced subsequent release of IL-6”.
brusatol: in [2] (10 nM Mito-MES+10 μM DMF, 0.25 μM brusatol), the “percent of infected Calu3 cells positive for the N protein, flow cytometry (data not shown)” value is “directly enhanced SARS-CoV-2 infection”. Besides, the “effect of brusatol on the antiviral effect of DMF and Mito-MES” value in data set [2] (Calu3, 0.25 μM brusatol 24 h) is “inhibited the antiviral effect of both DMF alone and Mito-MES”. For the same molecule, the “release of progeny virus / SARS-CoV-2 replication, TCID50” value in [2] (Calu3, 0.25 μM brusatol pretreatment) is on record as “significantly increased SARS-CoV2 replication; also recorded: significantly increased subsequent release of progeny SARS-CoV-2 virus particles”. Besides, the “Viral replication by flow cytometry” value in data set [2] (Mito-MES 1000 nM, Brusatol 250 nM, Mito-MES 1000 nM+Brusatol 250 nM) was determined as 39.9%. For the same molecule, in data set [3], the HO-1 protein levels entry was “increased the HO-1 protein levels”, the “protein levels of Keap (Keap1)” value is listed as “increased protein levels of Keap” and the “protein levels of Nrf2” value was “reduced protein levels of Nrf2”. In data set [4] (Calu3), the “effect of brusatol on the anti-inflammatory effect of Mito-MES (IL-6)” value is listed as “inhibited the anti-inflammatory effect of Mito-MES”. Further, the “release of IL-6 from infected cells” value in data set [4] is given as “significantly increased subsequent release of IL-6”.

These data come from patent US20220273678A1 (priority 2020, published 2022).
